Experiment [1] relates to B16 murine melanoma. Description: MTT cell growth inhibition, B16 melanoma cells. The note with it: 3-6 days incubation. The experiment is classed as cell-based. How it is done:
(§1) The following cell culture tests were performed to test the toxicity of benzimidazole derivative compounds of the present invention on colon and melanoma tumor cells. The viability of the cells were tested by looking at MTT (3-[4,5-dimethylthiazol-2-yl]-2,5-diphenyltetrazolium bromide) reduction. MTT assay is a well known measure of cell viability.
(§2) The colon tumor cells (HT29) and the melanoma cells (B16 murine melanoma) were seeded (1000-2000 cells) into each well of a 96-well microtiter plate and allowed to grow. Twenty-four hours later, increasing concentrations of each benzimidazole derivative were added to the plates and the cells were allowed to incubate for 3-6 days in the presence of the drugs. MTT reagent was then added to the wells and allowed to incubate for 4 hours at 37° C., after which the formazan metabolite was solubilized with acidic isopropanol and the absorbance was read. Experimental controls included blank wells to which no cells were added (zero point of formazan absorbance) and control wells to which no drug was added (highest level of formazan absorbance). Each drug concentration was tested in duplicate and the resulting average absorbance was plotted against drug concentration using the EZ-ED50 computer program on a personal computer interfaced to the microtiter plate reader. […] The IC50 value is then derived from this equation by EZ-ED50.

Experiment [2] deals with colon tumor cells (HT29). Description: MTT cell growth inhibition, HT29 colon tumor cells. It counts as cell-based. The conditions noted are these: 3-6 days incubation, read-out: IC50 Human Colon Carcinoma. The protocol: as §1, §2
Experiment [3] relates to Tubulin. Description: Microtubule inhibition assay (tubulin polymerization, absorbance at 350 nm). The experiment is classed as biochemical, bovine. The conditions noted are these: compound at 2 μM, after 30 minutes. How it is done: The benzimidazole derivatives of this invention were evaluated for their ability to inhibit formation of microtubules, following the procedure of Luduena, R. F. and M. C. […] Microtubule polymerization was followed by performing the reaction in a cuvette and monitoring UV absorbance at 350 nm, allowing direct visualization of the time course of the polymerization.

With `COC(=O)Nc1nc2ccc(C(=O)NCCN(C)C)cc2[nH]1` [Cpd. No. 2-14], the figures for the IC50 in experiment [1] and in experiment [2] were 403000 nM and 158000 nM, respectively. In addition, in experiment [3], the “Tubulin Polymerization Inhibition, % Inhibition” value is “none”.

In the case of `COC(=O)Nc1nc2ccc(OC(=O)c3cc(OC)c(OC)c(OC)c3)cc2[nH]1` [Cpd. No. 4-1], the values for the IC50 in experiment [1] and in experiment [2] were 250 nM and 170 nM, respectively. The “Tubulin Polymerization Inhibition, % Inhibition” value in experiment [3] turned out to be 2%.

In the case of `COC(=O)Nc1nc2ccc(C(=O)OCC=CCO)cc2[nH]1` [3-10], the IC50 in experiment [1] stood at 1000 nM; in experiment [2], 600 nM. In addition, the “Tubulin Polymerization Inhibition, % Inhibition” value in experiment [3] was “none”.

In the case of `COC(=O)Nc1nc2ccc(C(=O)Nc3cc(OC)c(OC)c(OC)c3)cc2[nH]1` [2-15], the IC50 in experiment [1] is 6100 nM; in experiment [2], 4200 nM. Moreover, in experiment [3], the “Tubulin Polymerization Inhibition, % Inhibition” value was 5%.

On to `CCCN(CCC)C(=O)c1ccc2nc(NC(=O)OC)[nH]c2c1` [2-18], for which the IC50 in experiment [1] came out at 9400 nM; in experiment [2], 3100 nM. In addition, the “Tubulin Polymerization Inhibition, % Inhibition” value in experiment [3] is 42%.

With `COC(=O)Nc1nc2ccc(C(=O)OCC(F)(F)C(F)(F)F)cc2[nH]1` [3-14], the IC50 is 588000 nM in experiment [1] and 314000 nM in experiment [2]. Also, the “Tubulin Polymerization Inhibition, % Inhibition” value in experiment [3] stood at 23%.

With `COC(=O)Nc1nc2ccc(C(=O)OCCF)cc2[nH]1` [3-17], the values for the IC50 in experiment [1] and in experiment [2] were 970 nM and 300 nM, respectively. In addition, the “Tubulin Polymerization Inhibition, % Inhibition” value in experiment [3] was determined as 8%.

On to `CCN(CC)CCCNC(=O)c1ccc2nc(NC(=O)OC)[nH]c2c1` [Cpd. No. 2-1], for which the IC50 in experiment [1] was 530000 nM; in experiment [2], 398000 nM. In addition, the “Tubulin Polymerization Inhibition, % Inhibition” value in experiment [3] is 24%.

As for `COC(=O)Nc1nc2ccc(C(=O)NNc3ccccc3)cc2[nH]1` [Cpd. No. 2-12], the IC50 in experiment [1] came to 271000 nM; in experiment [2] it was 25400 nM. Moreover, in experiment [3], the “Tubulin Polymerization Inhibition, % Inhibition” value is on record as 50%.

For the compound `COC(=O)Nc1nc2ccc(C(=O)OCCC(C)CCC=C(C)C)cc2[nH]1` (centres unmarked) [3-21], the IC50 in experiment [1] was determined as 77 nM; in experiment [2] it was 46 nM. For the same compound, the “Tubulin Polymerization Inhibition, % Inhibition” value in experiment [3] came out at 2%.

Regarding `COC(=O)Nc1nc2ccc(C(=O)OCCN(C)C)cc2[nH]1` [Cpd. No. 3-8], the concentration for half-maximal inhibition (IC50) in experiment [1] is 70400 nM; in experiment [2] it was 48600 nM. Besides, the “Tubulin Polymerization Inhibition, % Inhibition” value in experiment [3] is reported as “none”.

Turning to `COC(=O)Nc1nc2ccc(C(=O)OCCCCCO)cc2[nH]1` [3-11], the values for the IC50 in experiment [1] and in experiment [2] were 248000 nM and 107000 nM, respectively. Moreover, in experiment [3], the “Tubulin Polymerization Inhibition, % Inhibition” value is listed as 50%.

Regarding `COC(=O)Nc1nc2ccc(C(=O)NCCC(C)(C)C)cc2[nH]1` [2-7], the IC50 in experiment [1] came to 410 nM; in experiment [2], 420 nM. Also, in experiment [3], the “Tubulin Polymerization Inhibition, % Inhibition” value was found to be 43%.

As to `COC(=O)Nc1nc2ccc(C(=O)OC(CCl)CCl)cc2[nH]1` [Cpd. No. 3-12], the IC50 in experiment [1] turned out to be 990 nM; in experiment [2], 2100 nM. The “Tubulin Polymerization Inhibition, % Inhibition” value in experiment [3] came out at 11%.

Regarding `COC(=O)Nc1nc2ccc(C(=O)NC(C)CC(C)C)cc2[nH]1` (centres unmarked) [Cpd. No. 2-6], the IC50 came out at 840 nM in experiment [1] and 500 nM in experiment [2]. For the same compound, the “Tubulin Polymerization Inhibition, % Inhibition” value in experiment [3] came out at 12%.

For `COC(=O)Nc1nc2ccc(C(=O)OC(C)C3CC3)cc2[nH]1` (centres unmarked) [3-16], the IC50 in experiment [1] came out at 62 nM; in experiment [2], 30 nM. In experiment [3], the “Tubulin Polymerization Inhibition, % Inhibition” value came out at 44%.

For the compound `CCC(C)CNC(=O)c1ccc2nc(NC(=O)OC)[nH]c2c1` (centres unmarked) [2-8], the IC50 turned out to be 5000 nM in experiment [1] and 4900 nM in experiment [2]. Further, in experiment [3], the “Tubulin Polymerization Inhibition, % Inhibition” value is recorded as “none”.

For `COC(=O)Nc1nc2ccc(C(=O)OCCC(C)CC(C)(C)C)cc2[nH]1` (centres unmarked) [3-20], the IC50 in experiment [1] is below 1 nM; in experiment [2], 13 nM. The “Tubulin Polymerization Inhibition, % Inhibition” value in experiment [3] is listed as 35%.

As for `COC(=O)Nc1nc2ccc(C(=O)NCCC(C)C)cc2[nH]1` [2-5], the IC50 in experiment [1] is 5900 nM; in experiment [2] it was 5100 nM. Further, in experiment [3], the “Tubulin Polymerization Inhibition, % Inhibition” value was determined as 37%.

For `COC(=O)Nc1nc2ccc(C(=O)OC(CBr)CBr)cc2[nH]1` [3-18], the values for the half-maximal inhibitory concentration (IC50) in experiment [1] and in experiment [2] were 1200 nM and 2100 nM, respectively. For the same compound, in experiment [3], the “Tubulin Polymerization Inhibition, % Inhibition” value is on record as “none”.

As for `COC(=O)Nc1nc2ccc(C(=O)NCCN3CCOCC3)cc2[nH]1` [2-2], the IC50 was found to be 80500 nM in experiment [1] and 121000 nM in experiment [2]. The “Tubulin Polymerization Inhibition, % Inhibition” value in experiment [3] is recorded as 11%.

For the compound `COC(=O)Nc1nc2ccc(C(=O)NCCCN(C)C)cc2[nH]1` [2-10], the IC50 turned out to be 553000 nM in experiment [1] and 447000 nM in experiment [2]. Moreover, the “Tubulin Polymerization Inhibition, % Inhibition” value in experiment [3] is on record as 5%.

Turning to `COC(=O)Nc1nc2ccc(NC(=O)CC(C)CC(C)(C)C)cc2[nH]1` (centres unmarked) [Cpd. No. 5-1], the IC50 in experiment [1] amounted to 6600 nM; in experiment [2], 7000 nM. In addition, the “Tubulin Polymerization Inhibition, % Inhibition” value in experiment [3] is given as “none”.

For `COC(=O)Nc1nc2ccc(C(=O)OCCOCCO)cc2[nH]1` [Cpd. No. 3-5], the IC50 in experiment [1] is 2600 nM. Moreover, in experiment [3], the “Tubulin Polymerization Inhibition, % Inhibition” value was 10%.

`CCOCCOCCOC(=O)c1ccc2nc(NC(=O)OC)[nH]c2c1` [Cpd. No. 3-4]: the results for the IC50 in experiment [1] and in experiment [2] were 84 nM and 27 nM, respectively. The “Tubulin Polymerization Inhibition, % Inhibition” value in experiment [3] is recorded as 12%.

For `COC(=O)Nc1nc2ccc(C(=O)OC(CF)CF)cc2[nH]1` [3-15], the IC50 in experiment [1] was 940 nM; in experiment [2], 610 nM. In addition, in experiment [3], the “Tubulin Polymerization Inhibition, % Inhibition” value came to 45%.

On to `COC(=O)Nc1nc2c(OC(=O)CC(C)CC(C)(C)C)cccc2[nH]1` (centres unmarked) [Cpd. No. 1-1], for which the IC50 in experiment [1] turned out to be 20100 nM; in experiment [2], 15800 nM. The “Tubulin Polymerization Inhibition, % Inhibition” value in experiment [3] was 38%.

For `CCC(CC)NC(=O)c1ccc2nc(NC(=O)OC)[nH]c2c1` [2-9], the results for the IC50 in experiment [1] and in experiment [2] were 370 nM and 228000 nM, respectively. For the same compound, the “Tubulin Polymerization Inhibition, % Inhibition” value in experiment [3] is on record as 16%.

Consider `COC(=O)Nc1nc2ccc(C(=O)OCc3ccccc3)cc2[nH]1` [3-7], for which the IC50 in experiment [1] amounted to 85 nM; in experiment [2], 33 nM. The “Tubulin Polymerization Inhibition, % Inhibition” value in experiment [3] was determined as 26%.

As for `COC(=O)Nc1nc2c(OC(=O)c3cc(OC)c(OC)c(OC)c3)cccc2[nH]1` [Cpd. No. 1-2], the IC50 in experiment [1] turned out to be 14000 nM; in experiment [2], 26300 nM. Moreover, the “Tubulin Polymerization Inhibition, % Inhibition” value in experiment [3] is 35%.

Regarding `C=CCOC(=O)c1ccc2nc(NC(=O)OC)[nH]c2c1` [3-3], the IC50 in experiment [1] is 220 nM; in experiment [2], 59 nM. In experiment [3], the “Tubulin Polymerization Inhibition, % Inhibition” value is 42%.

On to `COC(=O)Nc1nc2ccc(C(=O)OCCOCCCl)cc2[nH]1` [3-2], for which the figures for the IC50 in experiment [1] and in experiment [2] were 82 nM and 36 nM, respectively. Also, the “Tubulin Polymerization Inhibition, % Inhibition” value in experiment [3] was 14%.

On to `COCCNC(=O)c1ccc2nc(NC(=O)OC)[nH]c2c1` [2-11], for which the IC50 in experiment [1] is 30500 nM; in experiment [2] it was 17100 nM. Besides, the “Tubulin Polymerization Inhibition, % Inhibition” value in experiment [3] stood at 19%.

Consider `CCC(C)NC(=O)c1ccc2nc(NC(=O)OC)[nH]c2c1` (centres unmarked) [2-3], for which the IC50 in experiment [1] is 2900 nM; in experiment [2], 1600 nM. Besides, the “Tubulin Polymerization Inhibition, % Inhibition” value in experiment [3] was 26%.

Take `COC(=O)Nc1nc2ccc(C(=O)OCCCCl)cc2[nH]1` [3-9]: the IC50 in experiment [1] was found to be 210 nM; in experiment [2] it was 54 nM. In experiment [3], the “Tubulin Polymerization Inhibition, % Inhibition” value is “none”.

Consider `COC(=O)Nc1nc2ccc(C(=O)Nc3ccccc3O)cc2[nH]1` [2-13], for which the IC50 in experiment [1] worked out at 2800 nM; in experiment [2], 2300 nM. For the same compound, the “Tubulin Polymerization Inhibition, % Inhibition” value in experiment [3] was found to be 27%.

In the case of `COC(=O)Nc1nc2ccc(C(=O)N(C)C3CCCCC3)cc2[nH]1` [Cpd. No. 2-16], the IC50 in experiment [1] was 320 nM; in experiment [2], 230 nM. The “Tubulin Polymerization Inhibition, % Inhibition” value in experiment [3] turned out to be 39%.

As for `CCCCN(C)C(=O)c1ccc2nc(NC(=O)OC)[nH]c2c1` [2-17], the figures for the IC50 in experiment [1] and in experiment [2] were 4600 nM and 2500 nM, respectively. For the same compound, in experiment [3], the “Tubulin Polymerization Inhibition, % Inhibition” value is listed as “none”.

Consider `COC(=O)Nc1nc2ccc(C(=O)NCC3CCCO3)cc2[nH]1` (centres unmarked) [2-4], for which the IC50 came out at 47200 nM in experiment [1] and 35700 nM in experiment [2]. In addition, the “Tubulin Polymerization Inhibition, % Inhibition” value in experiment [3] is 36%.
